The structures appear in SMILES notation. Activity calls are given as the source filed them. No cut-off for these calls is given here.

In ChEMBL document CHEMBL5537181 (J Med Chem, 2024) one finds inhibition data, which are given here for one compound.

For the assay, the target named is Neuronal acetylcholine receptor; alpha3/beta2 (Rattus norvegicus) (UniProt P04757+P12390). The assay is described as follows: Antagonist activity at rat alpha3beta2 nAChR expressed in acetylcholine-induced Xenopus laevis oocytes assessed as inhibition of acetylcholine-induced current at 100 nM by two electrode voltage-clamp assay. Format: cell-based. The conditions noted are these: Oocyte.

Consider `CC[C@H](C)[C@H](NC(=O)[C@H](CCCNC(=N)N)NC(=O)[C@H](CCCNC(=N)N)NC(=O)[C@H](Cc1ccc(O)cc1)NC(=O)[C@H](CCCNC(=N)N)NC(=O)[C@H](CCCNC(=N)N)NC(=O)[C@H](CCCNC(=N)N)NC(=O)[C@H](CCCNC(=N)N)NC(=O)[C@H](CC(=O)O)NC(=O)[C@H](Cc1ccc(O)cc1)NC(=O)[C@@H]1CCCN1C(=O)[C@H](CO)NC(=O)[C@H](CCCNC(=N)N)NC(=O)[C@H](Cc1ccc(O)cc1)NC(=O)[C@H](CCCNC(=N)N)NC(=O)CN)C(=O)N[C@H](C(=O)N[C@@H](CC(=O)O)C(N)=O)[C@@H](C)O`, for which the inhibition result was “inactive”.
